Experimental data reported in patent publication US20240309018A1, “THIAZOLE-LACTAM-SPIROHETEROCYCLIC COMPOUNDS AND APPLICATIONS THEREOF” (D3 BIO (WUXI) CO., LTD, priority 2021, published 2024).

Assays:
ERK2 kinase = ERK2 kinase (Homo sapiens (Human), UniProt P28482); assay: ERK2 in vitro kinase activity assay (33P-ATP, MBP substrate, filter-binding); assay type: biochemical
Protocol: (§1) The ability of the compound to inhibit ERK1 and ERK2 kinase activity was measured.
(§2) 20 mM Hepes (pH 7.5), 10 mM MgCl2, 1 mM ethylenebis(oxyethylenenitrilo)tetraacetic acid (EGTA), 0.02% Brij35, 0.02 mg/mL bovine serum albumin (BSA), 0.1 mM Na3VO4, 2 mM dithiothreitol (DTT), 1% DMSO.
(§3) The assay compound was dissolved in 100% DMSO to prepare a stock solution of specific concentration. The compound was serially diluted in DMSO solution using Integra Viaflo Assist smart pipette.
(§4) • 1) The substrate MBP was prepared in freshly prepared reaction buffer; • 2) ERK1 (or ERK2) kinase was added to the above-mentioned MBP solution and mixed gently; • 3) The compound dissolved in 100% DMSO was added to the kinase reaction system using ultrasound technology (Echo550; nanoliter range), and the mixture was incubated at room temperature for 20 minutes; • 4) 33P-ATP (specific concentration of […]) was added to the reaction system, and the reaction was started at this time; • 5) The mixture was incubated at room temperature for 2 hours; • 6) The amount of radioactivity was detected by filter-binding method; • 7) ERK1 (or ERK2) kinase activity was calculated as the ratio of the remaining kinase activity in the assay sample to the kinase activity of the control group (treated by DMSO). Curve was fitted using Prism (GraphPad software) and IC50 values were calculated. • 5.

In vivo PK study in mice = assay: In vivo PK study in mice; set-up: species or system mouse; conditions: female BALB/c mice
From the text: Female BALB/c mice were used as assay animals to determine the blood concentration of the compound and evaluate the pharmacokinetic behavior after a single administration.
Four healthy adult female BALB/c mice were selected, wherein 2 mice were in an intravenous injection group and 2 mice were in an oral group. The vehicle in the intravenous injection group was 5% DMSO+95% (20% HP-β-CD). The compound to be assayed was mixed with an appropriate amount of vehicle for intravenous injection, vortexed and sonicated to prepare a clear solution of 0.5 mg/mL. The clear solution was filtered by a microporous membrane, and then ready for use. The vehicle in the oral group was 5% DMSO+95% (20% HP-β-CD). The compound to be assayed was mixed with the vehicle, vortexed and sonicated to prepare a solution of 0.3 mg/mL. Mice were administered 1 mg/kg intravenously or 3 mg/kg orally, and then whole blood was collected for a certain period. Plasma was prepared. The drug concentration was analyzed by LC-MS/MS method, and the pharmacokinetic parameters were calculated by Phoenix WinNonlin software (Pharsight, USA).

mouse plasma albumin = assay: Plasma protein binding (ultracentrifugation), mouse; assay type: in vitro ADME; further: tested at 0.2 µM
Protocol: The binding degree of the assay compound to human/mouse/rat/canine/monkey plasma albumin was studied.
• 1) Matrix preparation: on the day of the assay, plasma was thawed in cold water and centrifuged at 3220 rpm for 5 min to remove all clots. The pH of the resulting plasma was measured and adjusted to 7.4±0.1 using 1% phosphoric acid or IN sodium hydroxide as needed. • 2) Dilution procedure for the assay compound: the assay compound was dissolved in dimethyl sulfoxide (DMSO) to prepare stock solutions with concentrations of 10 mM and 2 mM, respectively. A 40 μM working solution was prepared by diluting 2 μL of stock solution (2 mM) with 98 μL of DMSO. A 400 μM working solution of the control compound was prepared by diluting 10 μL of stock solution with 240 μL of DMSO. The working solution of the compound (5 μL) was mixed well with a blank matrix (995 μL) at a ratio of 1:200 to prepare a loading matrix.
• a) An equal volume of 30 μL of loading matrix (n=2) was transferred to a sample collection plate to prepare a time 0 (TO) sample for residue determination. The sample was immediately matched with the corresponding blank buffer to a final volume of 60 μL, and the volume ratio of plasma to buffer in each well was 1:1. […] The mixture was centrifuged at 4000 rpm for 20 min and 100 μL of supernatant from each sample was analyzed by LC-MS/MS.

ERK1 kinase = ERK1 kinase (Homo sapiens (Human), UniProt P27361); assay: ERK1 in vitro kinase activity assay (33P-ATP, MBP substrate, filter-binding); assay type: biochemical
Chain of ERK1 kinase (P27361 whole entry): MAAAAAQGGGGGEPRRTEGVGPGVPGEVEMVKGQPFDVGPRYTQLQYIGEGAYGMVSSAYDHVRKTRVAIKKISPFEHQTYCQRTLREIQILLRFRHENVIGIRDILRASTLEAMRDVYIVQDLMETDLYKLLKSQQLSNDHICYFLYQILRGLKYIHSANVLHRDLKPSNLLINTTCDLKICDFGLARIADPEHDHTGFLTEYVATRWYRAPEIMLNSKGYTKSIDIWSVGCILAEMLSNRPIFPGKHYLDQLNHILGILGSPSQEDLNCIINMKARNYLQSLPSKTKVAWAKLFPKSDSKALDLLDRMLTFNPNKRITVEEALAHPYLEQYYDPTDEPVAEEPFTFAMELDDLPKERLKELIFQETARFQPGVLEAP
Protocol: as §1, §2, §3, §4

Chain of ERK2 kinase (P28482 whole entry): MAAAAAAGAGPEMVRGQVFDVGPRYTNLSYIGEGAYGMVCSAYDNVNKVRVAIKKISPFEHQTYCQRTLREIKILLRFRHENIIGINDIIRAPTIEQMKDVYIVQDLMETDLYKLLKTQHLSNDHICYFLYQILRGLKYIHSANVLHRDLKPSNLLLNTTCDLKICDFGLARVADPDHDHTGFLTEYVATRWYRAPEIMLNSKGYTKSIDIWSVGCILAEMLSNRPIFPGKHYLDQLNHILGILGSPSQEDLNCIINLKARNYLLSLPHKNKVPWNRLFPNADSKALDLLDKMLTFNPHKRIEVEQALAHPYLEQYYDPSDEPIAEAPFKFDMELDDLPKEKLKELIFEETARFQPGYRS

Cc1cccc(CN2C(=O)c3nc(-c4nc(Nc5ccnn5C)ncc4C)sc3C23COC3)n1 [WX001]
IC50 (ERK2 kinase): 0.54 nM | Oral DNAUC (In vivo PK study in mice; 3 mg/kg orally, AUCPO/Dose): 2935 nM · h/mpk | clearance (In vivo PK study in mice; mouse, plasma, intravenous, 1 mg/kg intravenously or 3 mg/kg orally): 18.9 mL/min/kg | Vd (In vivo PK study in mice; mouse, plasma, intravenous, 1 mg/kg intravenously or 3 mg/kg orally, read-out: Vdss): 1.23 L/kg | half-life (In vivo PK study in mice; mouse, plasma, 1 mg/kg intravenously or 3 mg/kg orally): 66 min | bioavailability (In vivo PK study in mice; mouse, plasma, 1 mg/kg intravenously, 3 mg/kg orally, oral bioavailability): 154% | Cmax (In vivo PK study in mice; mouse, single dose, 1 mg/kg intravenously or 3 mg/kg orally, plasma): 4.79 µM | Plasma protein binding rate (unbound %) (mouse plasma albumin): 11.7% | IC50 (ERK1 kinase): 1.4 nM
